In patent US20150353495A1 (PORTOLA PHARMACEUTICALS, INC., priority 2010, published 2015):

What was measured:
TYK2 = target: T1, TYK2 (Homo sapiens, UniProt P29597); test: Z'-LYTE kinase assay TYK2; assay type: biochemical
T1 construct: 5 μl of catalytic domain recombinant Kinase enzyme+Tyr peptide substrate (Invitrogen, CA); purchased Invitrogen
T1 sequence (P29597 897-1176 limits assumed): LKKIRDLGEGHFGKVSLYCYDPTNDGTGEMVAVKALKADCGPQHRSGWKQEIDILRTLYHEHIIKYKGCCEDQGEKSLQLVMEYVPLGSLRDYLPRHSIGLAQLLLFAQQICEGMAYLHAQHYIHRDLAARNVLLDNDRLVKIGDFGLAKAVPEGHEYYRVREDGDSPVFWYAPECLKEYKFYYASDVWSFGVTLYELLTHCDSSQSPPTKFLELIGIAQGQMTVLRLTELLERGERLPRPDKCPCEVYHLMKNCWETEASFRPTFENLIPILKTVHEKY
How it was run: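 IC50 derived by 4-parameter logistic fit of percent substrate phosphorylation relative to uninhibited wells. Tyr6 peptide phosphorylated by recombinant TYK2 catalytic domain for 1 h at room temperature (1% DMSO), cleaved by development protease 1 h, FRET emission ratio 445/520 nm.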

JAK2 = target: T2, JAK2 (Homo sapiens, UniProt O60674); test: Z'-LYTE kinase assay JAK2; assay type: biochemical
T2 construct: 5 μl of catalytic domain recombinant Kinase enzyme+Tyr peptide substrate (Invitrogen, CA); purchased Invitrogen
T2 sequence (O60674 849-1124 limits assumed): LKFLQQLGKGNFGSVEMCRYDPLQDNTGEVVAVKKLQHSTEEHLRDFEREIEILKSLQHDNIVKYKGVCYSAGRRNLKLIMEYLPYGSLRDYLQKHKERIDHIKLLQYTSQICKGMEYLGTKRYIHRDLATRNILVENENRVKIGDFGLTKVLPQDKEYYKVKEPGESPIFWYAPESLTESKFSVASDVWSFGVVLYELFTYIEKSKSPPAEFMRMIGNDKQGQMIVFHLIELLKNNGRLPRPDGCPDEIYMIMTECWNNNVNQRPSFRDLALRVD
How it was run: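 In duplicate wells, each test molecule (1% final DMSO) is incubated with recombinant kinase catalytic domain, Tyr6 peptide substrate and ATP for one hour at room temperature; a site-specific protease is then added for another hour before fluorescence reading.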

[1] = system: JAK1/3 signaling to STAT6 in Ramos B cells; test: IL4 stimulation of JAK1/3 signaling to STAT6 in Ramos B cells (pSTAT6 Y641, FACS); assay type: cell-based; details: Homo sapiens; for inhibition at 0.2 µM: 0.2 uM compound, read-out: IL-4/STAT6 in Ramos Percent Inhibition at 0.2 uM; for inhibition at 1 µM: 1.0 uM compound, read-out: IL-4/STAT6 in Ramos Percent Inhibition at 1.0 uM
How it was run: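 Phospho-STAT6 Y641 was measured by FACS using a PE-labelled antibody after fixation (2% paraformaldehyde) and methanol permeabilization. Before this, Ramos cells were exposed to compound for 1 h, then to 15 ng IL4 for 15 min.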

`CC(=O)N1CCN(c2ccc(Nc3cc(NCc4cccc(F)c4)c(C(N)=O)cn3)cc2)CC1` [Example 229] was tested. Which IC50 (TYK2) did it give?
The IC50 was 100 to 1000 nM.

What about the IC50 (JAK2) of the same molecule?
The IC50 was 10 to 100 nM.

And the inhibition at 0.2 µM [1]?
The inhibition at 0.2 µM was 38%.

And the inhibition at 1 µM [1]?
Its inhibition at 1 µM is 67%.

With `CC(=O)N1CCN(c2ccc(Nc3cc(NC4CC4)c(C(N)=O)cn3)cc2)CC1` [Example 2] as the molecule, how does the IC50 (TYK2) read?
Its IC50 is 100 to 1000 nM.

What about the IC50 (JAK2) of the same molecule?
The IC50 was 100 to 1000 nM.

And the inhibition at 0.2 µM [1]?
Its inhibition at 0.2 µM is 29%.

And the inhibition at 1 µM [1]?
The inhibition at 1 µM was 77%.
